Data on 14 molecules can be found in US7507730B2, “Substituted pyrazolo[1,5-a]pyrimidines as potassium channel activators” (Bristol-Myers Squibb Company, priority 2005, dated 2009).

As a reminder, the inhibition is the percentage by which the read-out fell short of the control. Higher therefore signals a strong effect. Broadly, the IC50 is the concentration at which inhibition is half-maximal.

Kv1.5, sequence (P22460 whole entry): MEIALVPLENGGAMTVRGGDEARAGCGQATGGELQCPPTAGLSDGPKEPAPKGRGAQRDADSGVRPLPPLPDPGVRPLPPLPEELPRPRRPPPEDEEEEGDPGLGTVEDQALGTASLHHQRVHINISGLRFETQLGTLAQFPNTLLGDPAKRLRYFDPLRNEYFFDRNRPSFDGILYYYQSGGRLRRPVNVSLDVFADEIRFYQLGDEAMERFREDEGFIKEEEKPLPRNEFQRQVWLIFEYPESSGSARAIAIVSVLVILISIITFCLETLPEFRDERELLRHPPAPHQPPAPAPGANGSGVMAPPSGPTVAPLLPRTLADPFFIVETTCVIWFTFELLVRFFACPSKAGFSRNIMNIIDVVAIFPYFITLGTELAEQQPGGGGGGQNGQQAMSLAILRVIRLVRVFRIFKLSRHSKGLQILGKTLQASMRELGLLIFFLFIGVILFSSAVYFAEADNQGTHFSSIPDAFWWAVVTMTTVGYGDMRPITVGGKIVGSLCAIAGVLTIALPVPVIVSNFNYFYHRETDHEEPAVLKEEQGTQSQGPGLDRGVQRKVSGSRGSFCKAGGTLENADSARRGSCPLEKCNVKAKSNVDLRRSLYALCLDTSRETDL

The first experiment concerns the target Kv1.5 (Homo sapiens, UniProt P22460). Put plainly: Kv1.5 inhibition assay (IKur inhibitor assay per cited references). In kind it is cell-based. The following applies: at 0.3 μM. The source says: Assays to determine the degree of activity of a compound as an IKur inhibitor are well known in the art and are described in references such as J. Gen. Physiol. Apr.; 101 (4):513-43, and Br. J. Pharmacol. 1995 May; 115(2):267-74.
Take `CCCS(=O)(=O)N(C)C(=O)C1=C(C)Nc2cc(C(F)(F)F)nn2C1c1ccc(Cl)c(Cl)c1` (single isomer, unassigned) [Example 91 Isomer 1, 7-(3,4-Dichlorophenyl)-N,5-dimethyl-N-(propylsulfonyl)-2-(trifluoromethyl)-4,7-dihydropyrazolo[1,5-a]pyrimidine-6-carboxamide]: at 0.3 µM the inhibition was 72%. With `CCCS(=O)(=O)N(C)C(=O)C1=C(C)Nc2cc(C(F)(F)F)nn2C1c1ccc(Cl)c(Cl)c1` (single isomer, unassigned) [Example 91 Isomer 2, 7-(3,4-Dichlorophenyl)-N,5-dimethyl-N-(propylsulfonyl)-2-(trifluoromethyl)-4,7-dihydropyrazolo[1,5-a]pyrimidine-6-carboxamide], the Kv1.5% inhibition was 52%. The molecule `CCN(C(=O)C1=C(C)Nc2cc(C(F)(F)F)nn2C1c1ccc(Cl)c(Cl)c1)S(=O)(=O)c1ccc(Cl)cc1` (single isomer, unassigned) [Example 93 Isomer 1, N-(4-Chlorophenylsulfonyl)-7-(3,4-dichlorophenyl)-N-ethyl-5-methyl-2-(trifluoromethyl)-4,7-dihydropyrazolo[1,5-a]pyrimidine-6-carboxamide] displayed an inhibition at 0.3 µM of 31%. In turn, `CCN(C(=O)C1=C(C)Nc2cc(C(F)(F)F)nn2C1c1ccc(Cl)c(Cl)c1)S(=O)(=O)c1ccc(Cl)cc1` (single isomer, unassigned) [Example 93 Isomer 2, N-(4-Chlorophenylsulfonyl)-7-(3,4-dichlorophenyl)-N-ethyl-5-methyl-2-(trifluoromethyl)-4,7-dihydropyrazolo[1,5-a]pyrimidine-6-carboxamide] had a Kv1.5% inhibition of 27%.

Turning to `CC1=C(C(=O)N(C)S(=O)(=O)c2c(C)noc2C)C(c2ccc(Cl)c(Cl)c2)n2nc(C)cc2N1` (single isomer, unassigned) [Example 94 Isomer 1, 7-(3,4-Dichlorophenyl)-N-(3,5-dimethylisoxazol-4-ylsulfonyl)-N,2,5-trimethyl-4,7-dihydropyrazolo[1,5-a]pyrimidine-6-carboxamide], the inhibition at 0.3 µM was 80%. On to `CC1=C(C(=O)N(C)S(=O)(=O)c2c(C)noc2C)C(c2ccc(Cl)c(Cl)c2)n2nc(C)cc2N1` (single isomer, unassigned) [Example 94 Isomer 2, 7-(3,4-Dichlorophenyl)-N-(3,5-dimethylisoxazol-4-ylsulfonyl)-N,2,5-trimethyl-4,7-dihydropyrazolo[1,5-a]pyrimidine-6-carboxamide], for which the Kv1.5% inhibition worked out at 63%. Molecule `CC1=C(C(=O)N(C)S(=O)(=O)c2c(C)noc2C)C(c2ccc(Cl)c(Cl)c2)n2nc(C(F)(F)F)cc2N1` (single isomer, unassigned) [Example 95 Isomer 1, 7-(3,4-Dichlorophenyl)-N-(3,5-dimethylisoxazol-4-ylsulfonyl)-N,5-dimethyl-2-(trifluoromethyl)-4,7-dihydropyrazolo[1,5-a]pyrimidine-6-carboxamide] gave an inhibition at 0.3 µM of 91%. Molecule `CC1=C(C(=O)N(C)S(=O)(=O)c2c(C)noc2C)C(c2ccc(Cl)c(Cl)c2)n2nc(C(F)(F)F)cc2N1` (single isomer, unassigned) [Example 95 Isomer 2, 7-(3,4-Dichlorophenyl)-N-(3,5-dimethylisoxazol-4-ylsulfonyl)-N,5-dimethyl-2-(trifluoromethyl)-4,7-dihydropyrazolo[1,5-a]pyrimidine-6-carboxamide] yielded a Kv1.5% inhibition of 71%.

As for `CC1=C(C(=O)N(C)S(=O)(=O)C(C)C)C(c2ccc(Cl)c(Cl)c2)n2nc(C(F)(F)F)cc2N1` (single isomer, unassigned) [Example 96 Isomer 1, 7-(3,4-Dichlorophenyl)-N-(isopropylsulfonyl)-N,5-dimethyl-2-(trifluoromethyl)-4,7-dihydropyrazolo[1,5-a]pyrimidine-6-carboxamide], the inhibition at 0.3 µM was determined as 57%. On to `CC1=C(C(=O)N(C)S(=O)(=O)C(C)C)C(c2ccc(Cl)c(Cl)c2)n2nc(C(F)(F)F)cc2N1` (single isomer, unassigned) [Example 96 Isomer 2, 7-(3,4-Dichlorophenyl)-N-(isopropylsulfonyl)-N,5-dimethyl-2-(trifluoromethyl)-4,7-dihydropyrazolo[1,5-a]pyrimidine-6-carboxamide], for which the Kv1.5% inhibition is on record as 56%. As to `CCN(C(=O)C1=C(C)Nc2cc(C)nn2C1c1ccc(Cl)c(Cl)c1)S(=O)(=O)c1c(C)noc1C` (single isomer, unassigned) [Example 97 Isomer 1, 7-(3,4-Dichlorophenyl)-N-(3,5-dimethylisoxazol-4-ylsulfonyl)-N-ethyl-2,5-dimethyl-4,7-dihydropyrazolo[1,5-a]pyrimidine-6-carboxamide], the Kv1.5% inhibition was 91%.

In the case of `CCN(C(=O)C1=C(C)Nc2cc(C)nn2C1c1ccc(Cl)c(Cl)c1)S(=O)(=O)c1c(C)noc1C` (single isomer, unassigned) [Example 97 Isomer 2, 7-(3,4-Dichlorophenyl)-N-(3,5-dimethylisoxazol-4-ylsulfonyl)-N-ethyl-2,5-dimethyl-4,7-dihydropyrazolo[1,5-a]pyrimidine-6-carboxamide], the Kv1.5% inhibition came to 50%.

The same experiment, now with this note: read-out: Kv1.5 IC50.
Take `CC1=C(C(=O)N(C)S(=O)(=O)C2CC2)C(c2ccc(Cl)c(Cl)c2)n2nc(C(F)(F)F)cc2N1` (single isomer, unassigned) [Example 98 Isomer 1, N-(Cyclopropylsulfonyl)-7-(3,4-dichlorophenyl)-N,5-dimethyl-2-(trifluoromethyl)-4,7-dihydropyrazolo[1,5-a]pyrimidine-6-carboxamide]: the 50% inhibitory concentration (IC50) stood at 112 nM. On the same count and under the same terms, the value for `CC1=C(C(=O)N(C)S(=O)(=O)C2CC2)C(c2ccc(Cl)c(Cl)c2)n2nc(C(F)(F)F)cc2N1` (single isomer, unassigned) [Example 98 Isomer 2, N-(Cyclopropylsulfonyl)-7-(3,4-dichlorophenyl)-N,5-dimethyl-2-(trifluoromethyl)-4,7-dihydropyrazolo[1,5-a]pyrimidine-6-carboxamide] was 200 nM.
